The nature of data set [1]: toxicity compared to other lactams having anti-microbial activity.
Another data set has as its system gram-positive bacteria. As to the kind of experiment: anti-bacterial activity against gram-positive bacteria. The format is cell-based.
The test system of a further data set is gram-negative bacteria. Briefly: anti-bacterial activity against gram-negative bacteria. The format is cell-based.

Regarding `C=C1NC(=O)C=C1c1ccc(Cl)cc1` [4-(4-chlorophenyl)-5-methylene-pyrrol-2-one], the toxicity entry in data set [1] is “unexpectedly low toxicity”. Also, the “anti-bacterial activity against gram-positive bacteria” value in the data set with gram-positive bacteria is “shows activity”. Further, the “anti-bacterial activity against gram-negative bacteria” value in the data set on gram-negative bacteria was “shows activity”.
Consider `C=C1NC(=O)C=C1c1ccc(C)cc1` [5-methylene-4-(p-tolyl)pyrrol-2-one], for which, in data set [1], the toxicity entry is given as “unexpectedly low toxicity”. Further, in the data set with gram-negative bacteria, the “anti-bacterial activity against gram-negative bacteria” value is “shows selective activity”.
